In one data set the target is T1, human GLP-1 receptor (Homo sapiens, UniProt P43220).
T1 construct: expressed in transfected cells; host or cells: Chinese guinea pig lung cells [sic]
Nature of the data set: GLP-1 receptor mediated cAMP production in vitro. Particulars: cells transfected with human GLP-1 receptor, 20 min at 37° C., read-out: GLP-1R (nM EC50). Format: cell-based. An excerpt: (§1) The medium was removed, the cells were lysed, and cAMP values were detected referring to the detection method described for the assay kit.

The target of the next data set is T2, GC receptor (Homo sapiens, UniProt P47871).
T2 construct: expressed in transfected cells; host or cells: HEK293 cells
T2 sequence (P47871 26-477): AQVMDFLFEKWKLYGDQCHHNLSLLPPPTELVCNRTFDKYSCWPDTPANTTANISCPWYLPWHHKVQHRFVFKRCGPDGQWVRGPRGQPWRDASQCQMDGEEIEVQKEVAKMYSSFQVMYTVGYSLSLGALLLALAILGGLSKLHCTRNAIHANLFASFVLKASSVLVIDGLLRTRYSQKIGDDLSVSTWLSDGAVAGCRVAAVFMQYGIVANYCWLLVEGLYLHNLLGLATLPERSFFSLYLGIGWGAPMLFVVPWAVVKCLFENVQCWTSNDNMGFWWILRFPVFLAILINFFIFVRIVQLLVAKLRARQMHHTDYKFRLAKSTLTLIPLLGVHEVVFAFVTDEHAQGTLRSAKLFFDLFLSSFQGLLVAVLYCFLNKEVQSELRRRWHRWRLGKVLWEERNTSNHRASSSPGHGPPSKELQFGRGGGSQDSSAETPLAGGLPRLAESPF
The data set can be described thus: GC receptor mediated cAMP production in vitro (HEK293 cells transfected with GC receptor). It is filed as cell-based. As to conditions: 20 min at 37° C., read-out: GCGR (nM EC50).
From the text: as §1

Data set [1] in a line: Short-term administration: food intake and body weight in DIO mice. As to conditions: 30 nmol/kg once every 24 h, twice, − decrease; for Rate of change in food intake (%): at 48 hours vs day before administration; for Body weight change: at 48 hours. Format: in vivo. The method, boiled down:
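DIO mice (mean body weight 52.5 g), 5 per group, dosed at 30 nmol/kg every 24 h for two doses, in 10 mM PBS pH 7.4; controls received solvent. Food intake and body weight at 48 h expressed as change rate versus the day before dosing.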

The nature of a further data set: physchem. It is filed as physicochemical.
A short description of data set [2]: Accelerated chemical stability in injection solvent system (HPLC-UV). As to conditions: 14 days, phosphate buffer pH 7.3 with Tween 80 and phenol, main peak area vs day 0. Format: physicochemical. The method, boiled down: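 Compound dissolved in 10 mM pH 8.5 sodium hydrogen phosphate buffer, adjusted to pH 7.3, with Tween 80 and phenol added. Solutions stored 14 days at 10 °C and 37 °C; HPLC-UV main-peak area by normalisation compared against day 0.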

The nature of data set [3]: Effect on body weight of DIO mice after 14 days' administration. Format: in vivo, C57BL/6J mice. Particulars: DIO mice, subcutaneous injection every day for 14 days; (initial−last)/initial; positive values indicate a decrease. The method, boiled down: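 C57BL/6J mice on H10060 high-fat diet for 34 weeks (DIO; 45.0–52.0 g), 5 per group, dosed subcutaneously once daily for 14 days; controls received saline. Body weight change (%) = (initial − last-day weight)/initial weight; positive values mean loss.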

Data set [4] in a line: Glucose tolerance test in glucose-loaded DIO mice. It is filed as in vivo. As to conditions: for AUC of blood glucose, Table 4: DIO mice fasted 16 h, glucose 1 g/kg i.p. 1 h after s.c. administration, 0.5, 1, 1.5 h; for AUC reduction rate (%), Table 4: blood glucose inhibition rate compared with model control group, DIO mice, glucose 1 g/kg i.p. The method, boiled down: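 DIO mice fasted 16 h received compound subcutaneously; 1 h later, glucose 1 g/kg was given intraperitoneally. Blood glucose measured at 0.5, 1 and 1.5 h; AUC compared with model control group to give blood glucose inhibition rate (%).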

Setting [5] is: pH 7.5, Solubility, pH 7.5, 10 mM phosphate buffer.
The mark [6] stands for this setting: pH 7.5, Solubility, pH 7.5, 20 mM phosphate buffer.

The results in this text go back to US12257287B2, “Glucagon-derived peptide and use thereof” (Tianjin Institute of Pharmaceutical Research Co., Ltd., priority 2018, dated 2025).

Converted amounts (≈) assume the structure as drawn. Marks after values point to notes of the source that are not given here. Numbered stars: 1 amine (or outer) side, 2 acyl side, 3 side chain; on linkers, the order of the positions; unused ones are H or OH. Square brackets hold non-standard residues; d marks the D form. Side chains are listed from the residue outwards. Peptide text beside a SMILES is read from it. * marks the point of attachment. C20 diacid = O=C(O)CCCCCCCCCCCCCCCCCCC(=O)*; C18 diacid = O=C(O)CCCCCCCCCCCCCCCCC(=O)*; γGlu = O=C(O)[C@H](CCC(=O)[*:2])N[*:1]; AEEA = NCCOCCOCC(=O)O; Aib = CC(C)(N)C(=O)O Where only a bound is given, the exact number is not on record here.
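Throughout, for Solubility, pH 7.5, 20 mM phosphate buffer: compound added at 2 mg per mL of phosphate buffer, with the dissolved amount determined in the supernatant.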
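Throughout, for Solubility: compound added at 2 mg per mL of phosphate buffer, with the dissolved amount determined in the supernatant.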

T1 sequence (P43220 24-463): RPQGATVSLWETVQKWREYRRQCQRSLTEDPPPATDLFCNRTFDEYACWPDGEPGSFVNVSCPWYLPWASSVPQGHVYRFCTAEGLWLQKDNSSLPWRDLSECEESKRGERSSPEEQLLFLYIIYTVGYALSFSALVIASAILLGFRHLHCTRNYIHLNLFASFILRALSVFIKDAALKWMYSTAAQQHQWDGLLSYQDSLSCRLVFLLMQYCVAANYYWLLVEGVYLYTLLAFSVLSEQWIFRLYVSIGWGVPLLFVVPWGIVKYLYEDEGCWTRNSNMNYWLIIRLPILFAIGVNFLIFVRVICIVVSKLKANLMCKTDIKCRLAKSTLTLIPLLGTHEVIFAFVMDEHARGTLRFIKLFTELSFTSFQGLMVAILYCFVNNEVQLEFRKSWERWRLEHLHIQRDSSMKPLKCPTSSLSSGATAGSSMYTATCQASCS
Experimental for physchem: 2 mg of the compound was weighed, dissolved in 1 ml of phosphate buffer solutions with different concentrations (10, 20 mM) and different pH values (7.5, 8.0), and centrifuged, and supernatant was taken. The peak area was measured by HPLC (chromatographic column: Aeris widepore XB-C18 3.6 mm, 4.6×150 mm; mobile phase: A: 0.05% TFA, B: 95% acetonitrile; detection wavelength: 214 nm) and compared with a corresponding sample standard solution, and the relative concentration of the test sample solution is calculated.

Take `CC[C@H](C)[C@H](NC(=O)[C@H](Cc1ccccc1)NC(=O)[C@H](CCC(=O)O)NC(=O)[C@H](CCCCN)NC(=O)[C@H](C)NC(=O)[C@H](C)NC(=O)[C@H](CCCNC(=N)N)NC(=O)[C@H](CCC(=O)O)NC(=O)[C@H](CC(=O)O)NC(=O)[C@H](CC(C)C)NC(=O)[C@H](Cc1ccc(O)cc1)NC(=O)[C@H](CCCCN)NC(=O)[C@H](CO)NC(=O)[C@H](CCCCNC(=O)COCCOCCNC(=O)COCCOCCNC(=O)CC[C@H](NC(=O)CCCCCCCCCCCCCCCCC(=O)O)C(=O)O)NC(=O)[C@H](CC(=O)O)NC(=O)[C@H](CO)NC(=O)[C@@H](NC(=O)[C@H](Cc1ccccc1)NC(=O)[C@@H](NC(=O)CNC(=O)[C@H](CCC(N)=O)NC(=O)C(C)(C)NC(=O)[C@@H](N)Cc1c[nH]cn1)[C@@H](C)O)[C@@H](C)O)C(=O)N[C@@H](C)C(=O)N[C@@H](Cc1c[nH]c2ccccc12)C(=O)N[C@@H](CC(C)C)C(=O)N[C@@H](CCC(=O)O)C(=O)NCC(=O)NCC(=O)N1CCC[C@H]1C(=O)N[C@@H](CO)C(=O)N[C@@H](CO)C(=O)NCC(N)=O` [Compound 75] (H-H[Aib]QGTFTSDK([AEEA-AEEA-γGlu-C18 diacid])SKYLDERAAKEFIAWLEGGPSSG-NH2; N-terminus assumed): the EC50 on human GLP-1 receptor amounted to 0.141 nM; at GC receptor it was 0.087 nM. Further, the “Rate of change in food intake (%)” value in data set [1] was −60%. For the same molecule, in data set [1], the “Body weight change” value is -2.4 g. The solubility in “physchem” (setting [5]) and in “physchem” (setting [6]) was more than 2000 µg/mL each time. In addition, the “Change in purity % (10° C.)” value in data set [2] (10° C.) is −1.9%. The “Change in purity % (37° C.)” value in data set [2] (37° C.) was −4.5%.
For the molecule `CC[C@H](C)[C@H](NC(=O)[C@H](Cc1ccccc1)NC(=O)[C@H](CCC(=O)O)NC(=O)[C@H](CCCCN)NC(=O)[C@H](C)NC(=O)[C@H](C)NC(=O)[C@H](CCCNC(=N)N)NC(=O)[C@H](CCC(=O)O)NC(=O)[C@H](CC(=O)O)NC(=O)[C@H](CC(C)C)NC(=O)[C@H](Cc1ccc(O)cc1)NC(=O)[C@H](CCCCN)NC(=O)[C@H](CO)NC(=O)[C@H](CCCCNC(=O)COCCOCCNC(=O)COCCOCCNC(=O)CC[C@H](NC(=O)CCCCCCCCCCCCCCCCCCC(=O)O)C(=O)O)NC(=O)[C@H](CC(=O)O)NC(=O)[C@H](CO)NC(=O)[C@@H](NC(=O)[C@H](Cc1ccccc1)NC(=O)[C@@H](NC(=O)CNC(=O)[C@H](CCC(N)=O)NC(=O)C(C)(C)NC(=O)[C@@H](N)Cc1c[nH]cn1)[C@@H](C)O)[C@@H](C)O)C(=O)N[C@@H](C)C(=O)N[C@@H](Cc1c[nH]c2ccccc12)C(=O)N[C@@H](CC(C)C)C(=O)N[C@@H](CCC(=O)O)C(=O)N[C@@H](C)C(=O)NCC(=O)NCC(=O)N1CCC[C@H]1C(=O)N[C@@H](CO)C(=O)N[C@@H](CO)C(=O)NCC(N)=O` [Compound 77] (H-H[Aib]QGTFTSDK([AEEA-AEEA-γGlu-C20 diacid])SKYLDERAAKEFIAWLEAGGPSSG-NH2; N-terminus assumed), on human GLP-1 receptor, the EC50 worked out at 0.291 nM. Moreover, the 50% effective concentration (EC50) on GC receptor stood at 0.076 nM. Besides, in data set [1], the “Rate of change in food intake (%)” value is on record as −51% and the “Body weight change” value was -2.9 g.
On to `CCCCCCCCCCCCCCCC(=O)N[C@@H](CCC(=O)N[C@@H](CCC(=O)NCCCC[C@H](NC(=O)[C@H](CC(=O)O)NC(=O)[C@H](CO)NC(=O)[C@@H](NC(=O)[C@H](Cc1ccccc1)NC(=O)[C@@H](NC(=O)CNC(=O)[C@H](CCC(N)=O)NC(=O)C(C)(C)NC(=O)[C@@H](N)Cc1c[nH]cn1)[C@@H](C)O)[C@@H](C)O)C(=O)N[C@@H](CO)C(=O)N[C@@H](CCCCN)C(=O)N[C@@H](Cc1ccc(O)cc1)C(=O)N[C@@H](CC(C)C)C(=O)N[C@@H](CCC(=O)O)C(=O)N[C@@H](CCC(=O)O)C(=O)N[C@@H](CCCNC(=N)N)C(=O)N[C@@H](C)C(=O)N[C@@H](C)C(=O)N[C@@H](CCCCN)C(=O)N[C@@H](CCC(=O)O)C(=O)N[C@@H](Cc1ccccc1)C(=O)N[C@H](C(=O)N[C@@H](C)C(=O)N[C@@H](Cc1c[nH]c2ccccc12)C(=O)N[C@@H](CC(C)C)C(=O)N[C@@H](CCCCN)C(=O)N[C@@H](CCC(=O)O)C(=O)NCC(=O)NCC(=O)N1CCC[C@H]1C(=O)N[C@@H](CO)C(=O)N[C@@H](CO)C(=O)NCC(N)=O)C(C)C)C(=O)O)C(=O)O` [Compound 3] (HELM PEPTIDE1{H.[Aib].Q.G.T.F.T.S.D.K.S.K.Y.L.E.E.R.A.A.K.E.F.V.A.W.L.K.E.G.G.P.S.S.G.[am]}|PEPTIDE2{[CCCCCCCCCCCCCCCC(=O)[*:2]].[gGlu].[gGlu]}$PEPTIDE1,PEPTIDE2,10:R3-3:R2$$$V2.0; N-terminus assumed), for which the EC50 is 20.7 nM at human GLP-1 receptor and 0.1 nM at GC receptor. Moreover, the “body weight change rate, Table 3” value in data set [3] is reported as 22.0%. Moreover, the “AUC of blood glucose, Table 4” value in data set [4] came to 8.66 ± 2.14 mmol·h/L. Moreover, the “AUC reduction rate (%), Table 4” value in data set [4] is 59.1** %. For the same molecule, in the data set “physchem” (pH 7.5), the “Solubility, pH 7.5, 20 mM phosphate buffer” value is recorded as “Insoluble”. The solubility in the data set “physchem” (setting [5]) was found to be 60 µg/mL (≈ 14.2 µM); in “physchem” (pH 8, Solubility, pH 8.0, 10 mM phosphate buffer) it was 170 µg/mL (≈ 40.3 µM); in “physchem” (pH 8, Solubility, pH 8.0, 20 mM phosphate buffer), 90 µg/mL (≈ 21.3 µM).
Turning to `CCCCCCCCCCCCCCCC(=O)N[C@@H](CCC(=O)N[C@@H](CCC(=O)NCCCC[C@H](NC(=O)[C@H](CC(=O)O)NC(=O)[C@H](CO)NC(=O)[C@@H](NC(=O)[C@H](Cc1ccccc1)NC(=O)[C@@H](NC(=O)CNC(=O)[C@H](CCC(N)=O)NC(=O)C(C)(C)NC(=O)[C@@H](N)Cc1c[nH]cn1)[C@@H](C)O)[C@@H](C)O)C(=O)N[C@@H](CO)C(=O)N[C@@H](CCCCN)C(=O)N[C@@H](Cc1ccc(O)cc1)C(=O)N[C@@H](CC(C)C)C(=O)N[C@@H](CCC(=O)O)C(=O)N[C@@H](CCC(=O)O)C(=O)N[C@@H](CCCNC(=N)N)C(=O)N[C@@H](C)C(=O)N[C@@H](C)C(=O)N[C@@H](CCCCN)C(=O)N[C@@H](CCC(=O)O)C(=O)N[C@@H](Cc1ccccc1)C(=O)N[C@H](C(=O)N[C@@H](CCC(=O)O)C(=O)N[C@@H](Cc1c[nH]c2ccccc12)C(=O)N[C@@H](CC(C)C)C(=O)N[C@@H](CCC(=O)O)C(=O)N[C@@H](C)C(=O)NCC(=O)NCC(=O)N1CCC[C@H]1C(=O)N[C@@H](CO)C(=O)N[C@@H](CO)C(=O)NCC(N)=O)C(C)C)C(=O)O)C(=O)O` [Compound 2] (HELM PEPTIDE1{H.[Aib].Q.G.T.F.T.S.D.K.S.K.Y.L.E.E.R.A.A.K.E.F.V.E.W.L.E.A.G.G.P.S.S.G.[am]}|PEPTIDE2{[CCCCCCCCCCCCCCCC(=O)[*:2]].[gGlu].[gGlu]}$PEPTIDE1,PEPTIDE2,10:R3-3:R2$$$V2.0; N-terminus assumed), the EC50 at human GLP-1 receptor came out at 0.219 nM; on GC receptor it was 0.0352 nM. For the same molecule, in data set [3], the “body weight change rate, Table 3” value turned out to be 22.0%. Besides, in data set [4], the “AUC of blood glucose, Table 4” value is 8.06 ± 2.06 mmol·h/L. Moreover, in data set [4], the “AUC reduction rate (%), Table 4” value was 61.9** %. Moreover, the solubility in the data set “physchem” (setting [5]) and in the data set “physchem” (setting [6]) was more than 2000 µg/mL throughout.
